Patent publication US20250002487A1, “HETEROCYCLIC COMPOUNDS AND USES THEREOF” (Ventus Therapeutics U.S., Inc., priority 2021, published 2025)

Molecular target: human-cGAS (h-cGAS) (Homo sapiens, UniProt Q8N884)
Assay: hcGAS Kinase-Glo Assay
Assay type: biochemical
Conditions: 40 nM h-cGAS, 100 μM ATP, 100 μM GTP, 25 nM dsDNA, 3 h incubation, read-out: hcGAS potency IC50
Method in brief: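 IC50 values come from a luminescence-based Kinase-Glo measurement on human cGAS. Conditions follow the Lama et al. 2019 method with minor modifications.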

human-cGAS (h-cGAS), sequence (Q8N884 whole entry): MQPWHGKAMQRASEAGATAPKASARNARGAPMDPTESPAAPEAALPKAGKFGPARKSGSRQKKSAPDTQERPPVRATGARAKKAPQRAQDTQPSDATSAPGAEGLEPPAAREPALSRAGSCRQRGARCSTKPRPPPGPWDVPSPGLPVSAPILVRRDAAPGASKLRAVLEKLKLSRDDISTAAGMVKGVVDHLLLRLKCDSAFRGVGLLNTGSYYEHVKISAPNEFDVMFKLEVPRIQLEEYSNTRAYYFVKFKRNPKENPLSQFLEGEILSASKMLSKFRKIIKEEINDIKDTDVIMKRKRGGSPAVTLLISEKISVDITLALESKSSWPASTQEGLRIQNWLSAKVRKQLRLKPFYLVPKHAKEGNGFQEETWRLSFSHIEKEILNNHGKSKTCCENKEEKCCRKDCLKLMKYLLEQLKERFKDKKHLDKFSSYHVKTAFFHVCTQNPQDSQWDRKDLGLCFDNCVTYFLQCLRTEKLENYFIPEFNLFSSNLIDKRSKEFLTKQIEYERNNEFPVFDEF

Structure (SMILES)	IC50
CNC(=O)c1ccc2c(C(=O)Nc3nnc(SC)s3)onc2c1 [Compound 193, N6-methyl-N3-(5-(methylthio)-1,3,4-thiadiazol-2-yl)benzo[c]isoxazole-3,6-dicarboxamide]	≥ 1000 nM
CSc1nnc(NC(=O)c2onc3cc(CO)ccc23)s1 [Compound 194, 6-(hydroxymethyl)-N-(5-(methylthio)-1,3,4-thiadiazol-2-yl)benzo[c]isoxazole-3-carboxamide]	500 to 1000 nM
CSc1nnc(NC(=O)c2onc3c2CCCC3=O)s1 [Compound 195, N-(5-(methylthio)-1,3,4-thiadiazol-2-yl)-7-oxo-4,5,6,7-tetrahydrobenzo[c]isoxazole-3-carboxamide]	≥ 1000 nM
CSc1nnc(NC(=O)c2onc3c2CCCC3O)s1 (stereo not drawn) [Compound 196, 7-Hydroxy-N-(5-(methylthio)-1,3,4-thiadiazol-2-yl)-4,5,6,7-tetrahydrobenzo[c]isoxazole-3-carboxamide]	≥ 1000 nM
CCc1nnc(NC(=O)c2onc3c2ccc2cccnc23)s1 [Compound 197, N-(5-ethyl-1,3,4-thiadiazol-2-yl)isoxazolo[4,3-h]quinoline-3-carboxamide]	100 to 500 nM
CSc1nnc(NC(=O)c2cn(CCC(C)(C)C)nn2)s1 [Compound 198, 1-(3,3-dimethylbutyl)-N-(5-(methylthio)-1,3,4-thiadiazol-2-yl)-1H-1,2,3-triazole-4-carboxamide]	≥ 1000 nM
CSc1nnc(NC(=O)c2cc(=O)c3cccc(O)c3[nH]2)s1 [Compound 199, 8-hydroxy-N-(5-(methylthio)-1,3,4-thiadiazol-2-yl)-4-oxo-1,4-dihydroquinoline-2-carboxamide]	≥ 1000 nM
CSc1nnc(NC(=O)c2cc(O)cc(-c3ccccc3)n2)s1 [Compound 200, 4-hydroxy-N-(5-(methylthio)-1,3,4-thiadiazol-2-yl)-6-phenylpicolinamide]	≥ 1000 nM
CSc1nnc(NC(=O)c2cc(-c3ccccc3)ncn2)s1 [Compound 201, N-(5-(methylthio)-1,3,4-thiadiazol-2-yl)-6-phenylpyrimidine-4-carboxamide]	≥ 1000 nM
CSc1nnc(NC(=O)c2cc(Oc3ccccc3)cc(=O)o2)s1 [Compound 202, N-(5-(methylthio)-1,3,4-thiadiazol-2-yl)-2-oxo-4-phenoxy-2H-pyran-6-carboxamide]	500 to 1000 nM
CSc1nnc(NC(=O)c2cc(-c3ccccc3)c(C)c(=O)o2)s1 [Compound 203, 3-methyl-N-(5-(methylthio)-1,3,4-thiadiazol-2-yl)-2-oxo-4-phenyl-2H-pyran-6-carboxamide]	100 to 500 nM
CSc1nnc(NC(=O)c2onc3cc(C(=O)O)ccc23)s1 [Compound 204]	100 to 500 nM
O=C(Nc1nnc(-c2ccccc2Cl)s1)c1cc(-c2ccccc2)cc(=O)o1 [Compound 205, N-[5-(2-chlorophenyl)-1,3,4-thiadiazol-2-yl]-6-oxo-4-phenylpyran-2-carboxamide]	100 to 500 nM
O=C(Nc1nnc(-c2ccccc2Cl)s1)c1cc(Nc2ccccc2)cc(=O)o1 [Compound 206, N-[5-(2-chlorophenyl)-1,3,4-thiadiazol-2-yl]-6-oxo-4-(phenylamino) pyran-2-carboxamide]	< 100 nM
CSc1nnc(NC(=O)c2cc3ccccc3c(=O)o2)s1 [Compound 207, N-(5-(methylthio)-1,3,4-thiadiazol-2-yl)-1-oxo-1H-isochromene-3-carboxamide]	≥ 1000 nM
CSc1nnc(NC(=O)c2cc(-c3ccccc3)no2)s1 [Compound 208, N-[5-(methylsulfanyl)-1,3,4-thiadiazol-2-yl]-3-phenyl-1,2-oxazole-5-carboxamide]	500 to 1000 nM
CSc1nnc(NC(=O)c2cc(-c3cccc(Cl)c3)no2)s1 [Compound 209, 3-(3-chlorophenyl)-N-[5-(methylsulfanyl)-1,3,4-thiadiazol-2-yl]-1,2-oxazole-5-carboxamide]	500 to 1000 nM

Structure (SMILES)	IC50
COc1ccc(-c2cc(C(=O)Nc3nnc(SC)s3)on2)cc1 [Compound 210]	≥ 1000 nM
CSc1nnc(NC(=O)c2cc(-c3cccc(F)c3)no2)s1 [Compound 211, 3-(3-fluorophenyl)-N-[5-(methylsulfanyl)-1,3,4-thiadiazol-2-yl]-1,2-oxazole-5-carboxamide]	500 to 1000 nM
COc1cccc(-c2cc(C(=O)Nc3nnc(SC)s3)on2)c1 [Compound 212, 3-(3-methoxyphenyl)-N-[5-(methylsulfanyl)-1,3,4-thiadiazol-2-yl]-1,2-oxazole-5-carboxamide]	≥ 1000 nM
CSc1nnc(NC(=O)c2cc(-c3ccccc3)cc(=O)o2)s1 [Compound 213, N-[5-(methylsulfanyl)-1,3,4-thiadiazol-2-yl]-6-oxo-4-phenylpyran-2-carboxamide]	100 to 500 nM
CSc1nnc(NC(=O)c2cc(-c3cccc(C#N)c3)no2)s1 [Compound 214, 3-(3-cyanophenyl)-N-[5-(methylsulfanyl)-1,3,4-thiadiazol-2-yl]-1,2-oxazole-5-carboxamide]	≥ 1000 nM
CSc1nnc(NC(=O)c2cc(-c3ccc(C)cc3)no2)s1 [Compound 215, 3-(4-methylphenyl)-N-[5-(methylsulfanyl)-1,3,4-thiadiazol-2-yl]-1,2-oxazole-5-carboxamide]	500 to 1000 nM
CSc1nnc(NC(=O)c2cc(-c3ccccc3Cl)no2)s1 [Compound 216]	500 to 1000 nM
CSc1nnc(NC(=O)c2cc(-c3ccccc3F)no2)s1 [Compound 217, 3-(2-fluorophenyl)-N-(5-(methylthio)-1,3,4-thiadiazol-2-yl)isoxazole-5-carboxamide]	100 to 500 nM
CSc1nnc(NC(=O)c2cc(-c3ccccc3C)no2)s1 [Compound 218, 3-(2-methylphenyl)-N-[5-(methylsulfanyl)-1,3,4-thiadiazol-2-yl]-1,2-oxazole-5-carboxamide]	500 to 1000 nM
CSc1nnc(NC(=O)c2cc(-c3cccc(C)c3)no2)s1 [Compound 219, 3-(3-methylphenyl)-N-[5-(methylsulfanyl)-1,3,4-thiadiazol-2-yl]-1,2-oxazole-5-carboxamide]	500 to 1000 nM
CSc1nnc(NC(=O)c2onc3c2ccc2ccccc23)s1 [Compound 220, N-[5-(methylsulfanyl)-1,3,4-thiadiazol-2-yl]naphtho[1,2-c][1,2]oxazole-3-carboxamide]	100 to 500 nM
CSc1nnc(NC(=O)c2onc3cc(C)ccc23)s1 [Compound 221, 6-methyl-N-[5-(methylsulfanyl)-1,3,4-thiadiazol-2-yl]-2,1-benzoxazole-3-carboxamide]	100 to 500 nM
CSc1nnc(NC(=O)c2onc3cc(F)ccc23)s1 [Compound 222, 6-fluoro-N-[5-(methylsulfanyl)-1,3,4-thiadiazol-2-yl]-2,1-benzoxazole-3-carboxamide]	500 to 1000 nM
CSc1nnc(NC(=O)c2onc3ccc(F)cc23)s1 [Compound 223, 5-fluoro-N-[5-(methylsulfanyl)-1,3,4-thiadiazol-2-yl]-2,1-benzoxazole-3-carboxamide]	500 to 1000 nM
COc1ccc2noc(C(=O)Nc3nnc(SC)s3)c2c1 [Compound 224, 5-methoxy-N-[5-(methylsulfanyl)-1,3,4-thiadiazol-2-yl]-2,1-benzoxazole-3-carboxamide]	≥ 1000 nM
CSc1nnc(NC(=O)c2ccc(-c3ccccc3)c(=O)o2)s1 [Compound 225, N-[5-(methylsulfanyl)-1,3,4-thiadiazol-2-yl]-6-oxo-5-phenylpyran-2-carboxamide]	≥ 1000 nM
